{
  "source": "ChEMBL document CHEMBL1201862",
  "about": "“PubChem BioAssay data set” (2004)",
  "key": {"[1]": {"target": "T1, Protein Tat (Human immunodeficiency virus type 1 group M subtype B (isolate HXB2)(HIV-1), UniProt P04608)", "T1 sequence (P04608 whole entry)": "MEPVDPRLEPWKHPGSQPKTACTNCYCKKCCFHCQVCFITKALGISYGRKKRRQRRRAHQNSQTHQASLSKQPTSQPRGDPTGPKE", "assay_type": "functional"}, "[2]": {"target": "T2, Oxysterols receptor LXR-beta (Homo sapiens, UniProt P55055)", "T2 sequence (P55055 whole entry)": "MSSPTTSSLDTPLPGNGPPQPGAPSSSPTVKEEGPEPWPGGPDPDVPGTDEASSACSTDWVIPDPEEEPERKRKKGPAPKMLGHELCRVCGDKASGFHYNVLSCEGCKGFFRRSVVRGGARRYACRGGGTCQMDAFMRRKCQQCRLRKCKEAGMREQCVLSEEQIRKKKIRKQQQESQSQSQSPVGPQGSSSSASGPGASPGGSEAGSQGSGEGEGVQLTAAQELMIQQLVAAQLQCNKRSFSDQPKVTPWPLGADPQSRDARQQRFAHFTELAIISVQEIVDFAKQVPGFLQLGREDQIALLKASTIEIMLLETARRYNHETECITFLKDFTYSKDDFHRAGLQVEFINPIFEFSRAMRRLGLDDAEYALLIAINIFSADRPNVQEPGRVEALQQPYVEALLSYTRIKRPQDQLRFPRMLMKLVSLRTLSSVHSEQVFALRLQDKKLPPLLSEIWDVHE", "assay": "LXR agonists, Gal4 luciferase reporter, dose response, counter-screen for ssDAF-12 agonist project, cell-based, luminescence, HEK293, S. stercoralis campaign (AID 720737)", "assay_type": "functional", "settings": "read-out: IC50 (the source's name)"}, "[3]": {"assay": "Luminescence-based cell-based high throughput dose response assay to identify activators of the DAF-12 from the parasite S. stercoralis (ssDAF-12).", "assay_type": "functional"}, "[4]": {"assay": "half-maximal inhibitory concentration for glucagon-like peptide-1 release, STC-1 cell line, dose-response (AID 1117345)", "assay_type": "functional, cell-based"}, "[5]": {"assay": "Glucagon-like peptide 1 release potency, NCI-H716 cell line, dose-response, half-maximal inhibitory concentration (AID 1117344)", "assay_type": "functional, cell-based"}, "[6]": {"assay": "inhibitors of SNCA 5'UTR-driven reporter translation, confirmation, H4 neuroglioma cells, luminescence (AID 1988)", "assay_type": "functional, cell-based"}, "[7]": {"assay": "microbe, parasite or virus in culture", "assay_type": "functional", "settings": "Mycobacterium tuberculosis"}, "[8]": {"assay": "inhibitors of firefly luciferase expression or activity, dose response, H4 neuroglioma cells, luminescence (AID 1990)", "assay_type": "functional, cell-based"}, "[9]": {"assay": "growth suppression of PTEN-null colon cells, dose response, cell-based, HCT116 PTEN knockout (AID 1047);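 further: cells exposed to compound for 60 hours before readout; potency for loss of cell viability measured by luminescence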", "assay_type": "functional"}, "[10]": {"test_system": "INS1", "assay": "beta cell apoptosis inhibitors, cytokine rescue, dose response, luminescence, retest (AID 449756);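 further: cell death triggered by IL-1 beta plus TNF-alpha plus IFN-gamma mixture; protective hits raise ATP signal compared with cytokine alone wells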", "assay_type": "functional, cell-based", "settings": "Rattus norvegicus"}, "[11]": {"target": "T3, Ubiquitin-conjugating enzyme E2 N (Homo sapiens, UniProt P61088)", "T3 sequence (P61088 whole entry)": "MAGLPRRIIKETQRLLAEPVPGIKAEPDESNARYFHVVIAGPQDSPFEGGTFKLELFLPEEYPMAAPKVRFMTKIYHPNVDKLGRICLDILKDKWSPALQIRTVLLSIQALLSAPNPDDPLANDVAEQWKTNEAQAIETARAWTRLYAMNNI", "assay_type": "functional"}, "[12]": {"assay": "Luminescence Cell-Based Dose Response HTS to Identify Inhibitors of 5'UTR Stem-Loop Driven Prion Protein mRNA Translation in H4 Neuroglioblastoma Cells. [Related pubchem assays: 1827 (Project Summary), 1813 (Primary HTS)]", "assay_type": "functional"}, "[13]": {"assay": "Shn3 3'UTR reporter inhibitors, dose response, cell-based, Clone20 osteoblasts, firefly luciferase, cherry-picked (AID 624132)", "assay_type": "functional"}, "[14]": {"assay": "growth suppression of beta-catenin-knockout colon cells, dose response, cell-based, HCT116, human colon tumor (AID 1045);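 further: cells exposed to compound for 60 hours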", "assay_type": "functional"}, "[15]": {"assay": "HepG2 cell cytotoxicity, dose response, cytotoxicity control for Shn3 inhibitor project, CellTiter-Glo, cherry-picked (AID 624134)", "assay_type": "functional, cell-based"}, "[16]": {"assay": "control 3'UTR Renilla luciferase suppression, dose response, counter-screen for Shn3 inhibitor project, cell-based, Clone20-Shn3RL, cherry-picked (AID 624133)", "assay_type": "functional"}, "[17]": {"test_system": "Escherichia coli", "assay": "microbe, parasite or virus in culture"}, "[18]": {"target": "Heat shock protein HSP 90-alpha (Homo sapiens, UniProt P07900)", "assay_type": "functional, organism-based"}, "[19]": {"test_system": "Escherichia coli", "assay": "microbe, parasite or virus in culture", "remark": "listed apart in the source"}, "[20]": {"target": "T4, Aryl hydrocarbon receptor (Homo sapiens, UniProt P35869)", "T4 sequence (P35869 whole entry)": "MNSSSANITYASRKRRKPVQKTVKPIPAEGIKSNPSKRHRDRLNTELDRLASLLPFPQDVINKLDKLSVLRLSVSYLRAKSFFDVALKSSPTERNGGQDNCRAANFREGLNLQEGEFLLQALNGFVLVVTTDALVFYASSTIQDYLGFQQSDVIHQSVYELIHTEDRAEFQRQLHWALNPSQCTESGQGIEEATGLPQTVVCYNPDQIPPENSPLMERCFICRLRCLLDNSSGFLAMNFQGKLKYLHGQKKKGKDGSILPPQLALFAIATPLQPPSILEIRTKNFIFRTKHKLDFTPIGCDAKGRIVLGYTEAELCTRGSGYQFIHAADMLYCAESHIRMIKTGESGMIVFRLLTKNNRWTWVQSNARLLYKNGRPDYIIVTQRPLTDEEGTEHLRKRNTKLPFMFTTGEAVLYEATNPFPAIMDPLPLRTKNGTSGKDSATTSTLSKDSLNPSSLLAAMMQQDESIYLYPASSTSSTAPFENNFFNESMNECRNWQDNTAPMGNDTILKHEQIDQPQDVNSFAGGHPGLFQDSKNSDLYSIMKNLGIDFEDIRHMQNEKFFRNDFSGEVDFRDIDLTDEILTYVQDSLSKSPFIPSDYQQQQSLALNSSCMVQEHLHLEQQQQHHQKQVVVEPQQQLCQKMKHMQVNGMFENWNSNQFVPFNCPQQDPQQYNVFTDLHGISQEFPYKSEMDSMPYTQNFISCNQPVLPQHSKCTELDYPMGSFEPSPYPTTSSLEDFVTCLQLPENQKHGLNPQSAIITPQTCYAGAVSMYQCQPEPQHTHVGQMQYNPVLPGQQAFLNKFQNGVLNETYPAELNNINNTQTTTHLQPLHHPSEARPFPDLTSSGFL", "settings": "Potency"}},
  "note": "Structures can show the parent of a compound that is named as a salt. The source made the active and inactive calls.",
  "data": [
    {"smiles": "CC1(C)Cc2nc3sc4c(SCC(=O)NCc5ccco5)ncnc4c3cc2CO1", "values": [
      {"measurement": "IC50", "setting": "[1]", "result": "> 100 µM (active)"}
    ]},
    {"smiles": "Cc1nn(Cc2ccccc2)c(Cl)c1/C=N/NC(=O)c1cccnc1", "values": [
      {"measurement": "EC50", "setting": "[2]", "result": "> 67.5 µM (inactive)"},
      {"measurement": "IC50", "setting": "[3]", "result": "> 67.5 µM (inactive)"}
    ]},
    {"smiles": "C[C@@H](NCCCc1cccc(C(F)(F)F)c1)c1cccc2ccccc12", "note": "[CINACALCET HYDROCHLORIDE]", "values": [
      {"measurement": "IC50", "setting": "[4]", "result": "> 40 µM (inactive)"},
      {"measurement": "IC50", "setting": "[5]", "result": "17.2 µM (inactive)"}
    ]},
    {"smiles": "CC(C)(C)c1ccc(C(O)CCCN2CCC(C(O)(c3ccccc3)c3ccccc3)CC2)cc1", "note": "(centres undefined) [TERFENADINE]", "values": [
      {"measurement": "EC50", "setting": "[6]", "result": "4.26 µM (active)"},
      {"measurement": "CC50", "setting": "[7]", "result": "9.24 µM (active)"},
      {"measurement": "EC50", "setting": "[8]", "result": "> 120 µM (not active)"},
      {"measurement": "IC50", "setting": "[4]", "result": "> 40 µM (inactive)"},
      {"measurement": "EC50", "setting": "[9]", "result": "4.43 µM (active)"},
      {"measurement": "AC50", "setting": "[10]", "result": "8.13 µM (active)"},
      {"measurement": "IC50", "setting": "[11]", "result": "> 20 µM (inactive)"},
      {"measurement": "EC50", "setting": "[12]", "result": "6.46 µM (active)"},
      {"measurement": "AC50", "setting": "[13]", "result": "16.7 µM (active)"},
      {"measurement": "EC50", "setting": "[14]", "result": "4.55 µM (active)"},
      {"measurement": "AC50", "setting": "[15]", "result": "11.4 µM (active)"},
      {"measurement": "AC50", "setting": "[16]", "result": "12.9 µM (active)"},
      {"measurement": "IC50", "setting": "[5]", "result": "20.5 µM (inactive)"}
    ]},
    {"smiles": "Oc1cc(Cl)ccc1Oc1ccc(Cl)cc1Cl", "note": "[TRICLOSAN]", "values": [
      {"measurement": "AC50", "setting": "[17]", "result": "0.329 µM (active)"},
      {"measurement": "AC50", "setting": "[18]", "result": "7.85 µM (active)"},
      {"measurement": "IC50", "setting": "[4]", "result": "2.55 µM (active)"},
      {"measurement": "AC50", "setting": "[19]", "result": "1.06 µM (active)"},
      {"measurement": "AC50", "setting": "[20]", "result": "70.8 µM (inconclusive)"},
      {"measurement": "IC50", "setting": "[5]", "result": "21.3 µM (inactive)"}
    ]}
  ]
}
